According to patent publication US20100273814A1, “((PHENYL)IMIDAZOLYL)METHYLHETEROARYL COMPOUNDS” (priority 2007, published 2010):
Where two headings read alike, the source gives them in different places.

Experiments:
Type in all cases: cell-based
alpha2C receptor = biological target: T1, alpha2C receptor (Homo sapiens, UniProt P18825); experiment: Receptor Selection and Amplification Technology (RSAT) assay, alpha2C; conditions: for Alpha 2C intrinsic activity (efficacy): ratio of maximal effect to that of standard full agonist brimonidine (UK14304), value in brackets
T1 construct: expressed in transfected cells; host or cells: NIH-3T3 cells
T1 sequence (P18825 1-462): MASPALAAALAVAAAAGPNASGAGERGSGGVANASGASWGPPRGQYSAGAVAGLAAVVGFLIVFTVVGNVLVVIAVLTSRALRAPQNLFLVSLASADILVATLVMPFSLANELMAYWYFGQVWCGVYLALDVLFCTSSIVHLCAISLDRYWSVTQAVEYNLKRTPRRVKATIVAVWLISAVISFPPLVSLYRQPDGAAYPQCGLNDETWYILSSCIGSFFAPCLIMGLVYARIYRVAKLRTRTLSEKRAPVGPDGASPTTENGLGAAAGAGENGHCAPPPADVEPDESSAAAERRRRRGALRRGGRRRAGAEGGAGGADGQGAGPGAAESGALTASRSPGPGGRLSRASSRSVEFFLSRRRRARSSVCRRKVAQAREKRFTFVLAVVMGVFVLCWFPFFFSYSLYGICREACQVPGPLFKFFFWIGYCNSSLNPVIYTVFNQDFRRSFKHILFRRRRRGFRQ
Method: (§1) Receptor Selection and Amplification Technology (RSAT) Assay
(§2) The RSAT assay measures a receptor-mediated loss of contact inhibition that results in selective proliferation of receptor-containing cells in a mixed population of confluent cells. The increase in cell number is assessed with an appropriate transfected marker gene such as β-galactosidase, the activity of which can be easily measured in a 96-well format. Receptors that activate the G protein, Gq, elicit this response. Alpha2 receptors, which normally couple to Gi, activate the RSAT response when coexpressed with a hybrid Gq protein that has a Gi receptor recognition domain, called Gq/i5.
(§3) NIH-3T3 cells are plated at a density of 2×10^6 cells in 15 cm dishes and maintained in Dulbecco's modified Eagle's medium supplemented with 10% calf serum. One day later, cells are cotransfected by calcium phosphate precipitation with mammalian expression plasmids encoding p-SV-β-galactosidase (5-10 μg), receptor (1-2 μg) and G protein (1-2 μg). 40 μg salmon sperm DNA may also be included in the transfection mixture. Fresh media is added on the following day and 1-2 days later, cells are harvested and frozen in 50 assay aliquots. Cells are thawed and […] added to 100 aliquots of various concentrations of drugs in triplicate in 96-well dishes. Incubations continue 72-96 hr at 37° C. After washing with phosphate-buffered saline, β-galactosidase enzyme activity is determined by adding 200 μl of the chromogenic substrate (consisting of 3.5 mM o-nitrophenyl-β-D-galactopyranoside and 0.5% nonidet P-40 in phosphate buffered saline), incubating overnight at 30° C. and measuring optical density at 420 nm. The absorbance is a measure of enzyme activity, which depends on cell number and reflects a receptor-mediated cell proliferation. The efficacy or intrinsic activity is calculated as a ratio of the maximal effect of the drug to the maximal effect of a standard full agonist for each receptor subtype. Brimonidine, also called UK14304, the chemical structure of which is shown below, is used as the standard agonist for the alpha2A, alpha2B and alpha2C receptors. The EC50 is the concentration at which the drug effect is half of its maximal effect.
(§4) EC50 values are nanomolar. ND stands for “not determinable” at concentrations less than 10 micromolar. IA stands for “intrinsic activity.”

alpha2A receptor = biological target: T2, alpha2A receptor (Homo sapiens, UniProt P08913); experiment: Receptor Selection and Amplification Technology (RSAT) assay, alpha2A; conditions: for Alpha 2A intrinsic activity (efficacy): ratio of maximal effect to that of standard full agonist brimonidine (UK14304), value in brackets
T2 construct: expressed in transfected cells; host or cells: NIH-3T3 cells
T2 sequence (P08913 1-465): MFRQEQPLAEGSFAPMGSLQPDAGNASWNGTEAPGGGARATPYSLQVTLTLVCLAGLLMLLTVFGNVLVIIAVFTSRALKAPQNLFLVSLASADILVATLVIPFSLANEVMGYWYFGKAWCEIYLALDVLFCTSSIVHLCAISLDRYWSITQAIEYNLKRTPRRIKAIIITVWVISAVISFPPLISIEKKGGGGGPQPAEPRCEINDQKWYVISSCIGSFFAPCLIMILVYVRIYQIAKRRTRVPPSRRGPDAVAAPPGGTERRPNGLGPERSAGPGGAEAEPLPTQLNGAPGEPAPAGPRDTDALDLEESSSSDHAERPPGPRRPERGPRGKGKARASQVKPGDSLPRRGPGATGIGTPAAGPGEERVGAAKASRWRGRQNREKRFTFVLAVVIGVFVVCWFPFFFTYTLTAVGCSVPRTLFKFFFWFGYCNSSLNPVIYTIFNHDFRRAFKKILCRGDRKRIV
Method: as §1, §2, §3, §4

alpha2B receptor = biological target: T3, alpha2B receptor (Homo sapiens, UniProt P18089); experiment: Receptor Selection and Amplification Technology (RSAT) assay, alpha2B; conditions: for Alpha 2B intrinsic activity (efficacy): ratio of maximal effect to that of standard full agonist brimonidine (UK14304), value in brackets
T3 construct: expressed in transfected cells; host or cells: NIH-3T3 cells
T3 sequence (P18089 1-450): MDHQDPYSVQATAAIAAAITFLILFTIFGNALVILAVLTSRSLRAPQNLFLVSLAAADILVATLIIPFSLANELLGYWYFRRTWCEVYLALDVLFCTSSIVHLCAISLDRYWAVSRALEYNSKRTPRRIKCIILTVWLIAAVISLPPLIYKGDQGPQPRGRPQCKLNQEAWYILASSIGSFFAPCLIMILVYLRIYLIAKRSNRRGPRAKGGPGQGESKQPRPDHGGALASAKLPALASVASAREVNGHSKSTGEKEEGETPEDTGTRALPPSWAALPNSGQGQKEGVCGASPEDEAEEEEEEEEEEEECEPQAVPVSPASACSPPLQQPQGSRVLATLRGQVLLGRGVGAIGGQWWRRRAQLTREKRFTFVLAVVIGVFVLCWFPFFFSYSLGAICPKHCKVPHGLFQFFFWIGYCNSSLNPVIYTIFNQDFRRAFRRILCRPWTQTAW
Method: as §1, §2, §3, §4

[1] = RSAT, transfected NIH-3T3 cells, value outside brackets, read-out: Alpha 2C EC50 (potency)
[2] = RSAT, transfected NIH-3T3 cells, value outside brackets, read-out: Alpha 2A EC50 (potency)
[3] = RSAT, transfected NIH-3T3 cells, value outside brackets, read-out: Alpha 2B EC50 (potency)

Row | SMILES | EC50 (alpha2C receptor; [1]) [nM] | Alpha 2C intrinsic activity (efficacy) (alpha2C receptor; RSAT) | EC50 (alpha2A receptor; [2]) [nM] | Alpha 2A intrinsic activity (efficacy) (alpha2A receptor; RSAT) | EC50 (alpha2B receptor; [3]) [nM] | Alpha 2B intrinsic activity (efficacy) (alpha2B receptor; RSAT) | EC50 (alpha2C receptor) [nM] | EC50 (alpha2A receptor) [nM] | EC50 (alpha2B receptor) [nM]
1 | Fc1c(C(c2cccnc2)c2c[nH]cn2)cccc1C(F)(F)F (stereo not drawn) [3-((2-fluoro-3-(trifluoromethyl)phenyl)(1H-imidazol-5-yl)methyl)pyridine] | 32 | 0.42 | > 10000 | 0.23 | 5.2 | 1.24 | – | – | –
2 | Fc1cccc(C(c2cccnc2)c2c[nH]cn2)c1F (stereo not drawn) [3-((2,3-difluorophenyl)(1H-imidazol-5-yl)methyl)pyridine] | 656 | 0.85 | > 10000 | 0.05 | 68 | 0.93 | – | – | –
3 | Clc1cccc(C(c2ccccn2)c2c[nH]cn2)c1Cl (stereo not drawn) [2-((2,3-dichlorophenyl)(1H-imidazol-5-yl)methyl)pyridine] | – | 0.39 | – | 0.21 | – | .85 | 784 | > 10000 | 8.7
4 | Fc1ccccc1C(c1ccncc1)c1c[nH]cn1 (stereo not drawn) [4-((2-fluorophenyl)(1H-imidazol-5-yl)methyl)pyridine] | 365 | 0.48 | > 10000 | 0.04 | 350 | 0.78 | – | – | –
5 | Fc1ccccc1C(c1ccccn1)c1c[nH]cn1 (stereo not drawn) [2-((2-fluorophenyl)(1H-imidazol-5-yl)methyl)pyridine] | 2080 | 0.43 | > 10000 | 0.04 | 993 | 0.56 | – | – | –
6 | Fc1cccc(C(c2ccccn2)c2c[nH]cn2)c1 (stereo not drawn) [2-((3-fluorophenyl)(1H-imidazol-5-yl)methyl)pyridine] | > 10000 | 0.25 | > 10000 | 0.14 | 273 | 0.64 | – | – | –
7 | c1ccc(C(c2ccncc2)c2c[nH]cn2)cc1 (stereo not drawn) [4-((phenyl)(1H-imidazol-5-yl)methyl)pyridine] | > 10000 | 0.14 | > 10000 | 0.10 | 309 | 0.69 | – | – | –
8 | Fc1cccc(C(c2ccncc2)c2c[nH]cn2)c1F (stereo not drawn) [4-((2,3-difluorophenyl)(1H-imidazol-5-yl)methyl)pyridine] | 2490 | 1.02 | > 10000 | 0.01 | 837 | 0.70 | – | – | –
9 | Fc1ccccc1C(c1cccnc1)c1c[nH]cn1 (stereo not drawn) [3-((2-fluorophenyl)(1H-imidazol-5-yl)methyl)pyridine] | – | 0.55 | – | 0.7 | – | 0.60 | 2480 | > 10000 | 251
10 | Fc1c(Cl)cccc1C(c1ccncc1)c1cnc[nH]1 (stereo not drawn) [4-((3-chloro-2-fluorophenyl)(1H-imidazol-5-yl)methyl)pyridine] | 340 | 0.60 | > 10000 | 0.09 | 40 | 1.02 | – | – | –
11 | Cc1c(F)cccc1C(c1ccccn1)c1c[nH]cn1 (stereo not drawn) [2-((3-fluoro-2-methylphenyl)(1H-imidazol-5-yl)methyl)pyridine] | 440 | 0.38 | > 10000 | 0.04 | 36 | 1.07 | – | – | –
12 | Cc1c(Cl)cccc1C(c1ccccn1)c1c[nH]cn1 (stereo not drawn) | 495 | 0.53 | > 10000 | 0.12 | 7.8 | 1.39 | – | – | –
13 | Fc1cccc(C(c2cccnc2)c2c[nH]cn2)c1 (stereo not drawn) [3-((3-fluorophenyl)(1H-imidazol-5-yl)methyl)pyridine] | 3640 | 0.17 | > 10000 | 0.05 | 222 | 1.01 | – | – | –
14 | Fc1c(C(c2ccccn2)c2c[nH]cn2)cccc1C(F)(F)F (stereo not drawn) [2-((2-fluoro-3-(trifluoromethyl)phenyl)(1H-imidazol-5-yl)methyl)pyridine] | 507 | 1.09 | > 10000 | 0.08 | 39 | 1.1 | – | – | –
15 | c1ccc(C(c2cccnc2)c2c[nH]cn2)cc1 (stereo not drawn) [3-((phenyl)(1H-imidazol-5-yl)methyl)pyridine] | > 10000 | 0.16 | > 10000 | 0.11 | 190 | 0.72 | – | – | –
